From PubChem BioAssay AID248 (DTP/NCI, 2004)
“And” between values parts separate entries of the source, which are not always exact repeats. Equal entries are not always repeated. Toxic doses and inconclusive results are not listed.

Tested on: L1210 leukemia ip in BDF1 mice, survival T/C
Assay: NCI In Vivo Anticancer Drug Screen. Data for tumor model L1210 Leukemia (intraperitoneal) in B6D2F1 (BDF1) mice
Details: endpoint: mean survival time, higher = longer survival
Outline: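 Read-out is survival time, reported as the treated-group measurement over the vehicle-control measurement.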

[1] = dose: 75.0 mg/kg/injection, schedule: Q01DX001 (ip), vehicle: saline
[2] = dose: 75.0 mg/kg/injection, schedule: Q01DX009 (ip), vehicle: saline
[3] = dose: 150.0 mg/kg/injection, schedule: Q01DX001 (ip), vehicle: saline
[4] = dose: 100.0 mg/kg/injection, schedule: Q04DX003 (ip), vehicle: Klucel (hydroxypropylcellulose) (HPC)
[5] = dose: 400.0 mg/kg/injection, schedule: Q04DX003 (ip), vehicle: Klucel (hydroxypropylcellulose) (HPC)
[6] = dose: 100.0 mg/kg/injection, schedule: Q01DX009 (ip), vehicle: Klucel (hydroxypropylcellulose) (HPC)
[7] = dose: 200.0 mg/kg/injection, schedule: Q01DX009 (ip), vehicle: Klucel (hydroxypropylcellulose) (HPC)
[8] = dose: 200.0 mg/kg/injection, schedule: Q04DX003 (ip), vehicle: Klucel (hydroxypropylcellulose) (HPC)
[9] = dose: 400.0 mg/kg/injection, schedule: Q01DX009 (ip), vehicle: Klucel (hydroxypropylcellulose) (HPC)
[10] = dose: 100.0 mg/kg/injection, schedule: Q01DX001 (ip), vehicle: Klucel (hydroxypropylcellulose) (HPC)
[11] = dose: 200.0 mg/kg/injection, schedule: Q01DX001 (ip), vehicle: Klucel (hydroxypropylcellulose) (HPC)
[12] = dose: 400.0 mg/kg/injection, schedule: Q01DX001 (ip), vehicle: Klucel (hydroxypropylcellulose) (HPC)
[13] = dose: 100.0 mg/kg/injection, schedule: Q01DX009 (ip), vehicle: saline with Tween-80
[14] = dose: 200.0 mg/kg/injection, schedule: Q01DX009 (ip), vehicle: saline with Tween-80
[15] = dose: 400.0 mg/kg/injection, schedule: Q01DX009 (ip), vehicle: saline with Tween-80

SMILES: CCCC[n+]1cccc(C#N)c1
- T/C (dose: 18.75 mg/kg/injection, schedule: Q01DX009 (ip), vehicle: saline): 92 % of control
- T/C (dose: 37.5 mg/kg/injection, schedule: Q01DX009 (ip), vehicle: saline): 101 % of control
- T/C (dose: 37.5 mg/kg/injection, schedule: Q04DX003 (ip), vehicle: saline): 93 % of control
- T/C [1]: 98 % of control
- T/C [2]: 90 % of control
- T/C (dose: 75.0 mg/kg/injection, schedule: Q04DX003 (ip), vehicle: saline): 93 % of control
- T/C [3]: 95 % of control
- T/C (dose: 150.0 mg/kg/injection, schedule: Q04DX003 (ip), vehicle: saline): 91 % of control

SMILES: COc1cc2c(ccc3c4cc(OC)c(OC)cc4c[n+](C)c23)cc1O
- T/C (dose: 80.0 mg/kg/injection, schedule: Q01DX009 (ip), vehicle: saline): 159 % of control
- T/C [4]: 120 % of control
- T/C (dose: 320.0 mg/kg/injection, schedule: Q01DX009 (ip), vehicle: saline): 161 % of control
- T/C [5]: 120 % of control

SMILES: O=C(NCc1ccc([N+](=O)[O-])cc1)OCc1ccccc1
- T/C [6]: 103 % of control
- T/C [4]: 102 % of control
- T/C [7]: 102 % of control
- T/C [8]: 104 % of control
- T/C [9]: 94 % of control
- T/C [5]: 96 % of control

SMILES: COc1cc(OC)c(NC(=O)c2ccc([N+](=O)[O-])s2)cc1Cl
- T/C (dose: 50.0 mg/kg/injection, schedule: Q01DX005 (ip), vehicle: saline): 94 % of control
- T/C (dose: 100.0 mg/kg/injection, schedule: Q01DX005 (ip), vehicle: saline): 94 % of control
- T/C (dose: 200.0 mg/kg/injection, schedule: Q01DX005 (ip), vehicle: saline): 94 % of control

SMILES: CCCCN(CCCC)CC(O)c1cccc2c1cc(Cl)c1ccccc12 (centres undefined)
- T/C [4]: 102 % of control
- T/C [8]: 97 % of control
- T/C [5]: 91 % of control

SMILES: CCOC(=O)C(CC(=O)O)C(c1ccccc1)c1ccccc1 (centres undefined)
- T/C [10]: 99 % of control
- T/C [6]: 105 % of control and 106 % of control
- T/C (dose: 100.0 mg/kg/injection, schedule: Q04DX002 (ip), vehicle: Klucel (hydroxypropylcellulose) (HPC)): 98 % of control and 103 % of control
- T/C [11]: 94 % of control
- T/C [7]: 103 % of control and 105 % of control
- T/C (dose: 200.0 mg/kg/injection, schedule: Q04DX002 (ip), vehicle: Klucel (hydroxypropylcellulose) (HPC)): 98 % of control and 100 % of control
- T/C [12]: 99 % of control
- T/C [9]: 98 % of control and 118 % of control
- T/C (dose: 400.0 mg/kg/injection, schedule: Q04DX002 (ip), vehicle: Klucel (hydroxypropylcellulose) (HPC)): 98 % of control and 103 % of control

SMILES: CCCCCCCCCCCCOc1ccccc1OC
- T/C [10]: 89 % of control
- T/C [11]: 90 % of control
- T/C [12]: 95 % of control

SMILES: CCCCCCCCOP(=O)(OCCCCCCCC)c1ccccc1
- T/C (dose: 10.0 mg/kg/injection, schedule: Q01DX001 (ip), vehicle: acetone): 91 % of control
- T/C (dose: 10.0 mg/kg/injection, schedule: Q04DX003 (ip), vehicle: acetone): 97 % of control
- T/C (dose: 12.5 mg/kg/injection, schedule: Q01DX009 (ip), vehicle: saline): 94 % of control
- T/C (dose: 20.0 mg/kg/injection, schedule: Q01DX001 (ip), vehicle: acetone): 91 % of control
- T/C (dose: 20.0 mg/kg/injection, schedule: Q04DX003 (ip), vehicle: acetone): 92 % of control
- T/C (dose: 25.0 mg/kg/injection, schedule: Q01DX009 (ip), vehicle: saline): 94 % of control
- T/C (dose: 40.0 mg/kg/injection, schedule: Q01DX001 (ip), vehicle: acetone): 86 % of control
- T/C (dose: 40.0 mg/kg/injection, schedule: Q04DX003 (ip), vehicle: acetone): 97 % of control
- T/C (dose: 50.0 mg/kg/injection, schedule: Q01DX009 (ip), vehicle: saline): 94 % of control
- T/C [2]: 112 % of control
- T/C (dose: 115.0 mg/kg/injection, schedule: Q01DX009 (ip), vehicle: saline): 106 % of control
- T/C (dose: 170.0 mg/kg/injection, schedule: Q01DX009 (ip), vehicle: saline): 98 % of control

SMILES: CCCC(C)C(C(=O)O)c1ccccc1 (centres undefined)
- T/C [13]: 102 % of control
- T/C (dose: 100.0 mg/kg/injection, schedule: Q04DX003 (ip), vehicle: saline with Tween-80): 117 % of control
- T/C [14]: 104 % of control
- T/C (dose: 200.0 mg/kg/injection, schedule: Q04DX003 (ip), vehicle: saline with Tween-80): 100 % of control
- T/C [15]: 100 % of control
- T/C (dose: 400.0 mg/kg/injection, schedule: Q04DX003 (ip), vehicle: saline with Tween-80): 99 % of control

SMILES: O=C(O)c1ccc([N+](=O)[O-])c(P(=O)(O)O)c1
- T/C [1]: 96 % of control
- T/C [3]: 109 % of control

SMILES: C/C=C\c1ccc(OCCOC(=O)Nc2ccc(Cl)cc2C(F)(F)F)c(OC)c1
- T/C [13]: 91 % of control
- T/C [14]: 96 % of control
- T/C [15]: 89 % of control
